The record followed here is a melting point compilation (Tetko et al.; mined from patent text by program, amines drawn as free bases though some values may be those of a salt).

Consider `COc1ccc(C=C(C#N)C(N)=O)c([N+](=O)[O-])c1OC`, for which the melting point is 194 to 195 °C.

`O=C(O)C=Cc1cccc(OCc2nc(-c3ccccc3)c(-c3ccccc3)o2)c1` returned a melting point of 145 to 147 °C.

Consider `O=C1CCC(CCO)(c2ccc(F)c(F)c2)CN1Cc1ccccc1` (centres undefined), for which the melting point lay within 153 to 154 °C.

`O=[N+]([O-])C=C(Cl)SCCCNS(=O)(=O)c1ccccc1` yielded a melting point of 105 to 106 °C.

On to `O=C(NCc1ccc(F)cc1)c1cccnc1Oc1ccc(F)cc1`, for which the melting point was 136 to 138 °C.

The molecule `COC(=O)c1cc(S(C)=O)ccc1OC` (centres undefined) yielded a melting point of 64 to 66 °C.

The molecule `COC(=O)CC[C@H](NC(=O)c1ccc(C#Cn2cnc3nc(NC(=O)C(C)(C)C)cc-3c2O)cc1)C(=O)OC` returned a melting point of 280 to 285 °C.

As to `COc1cccc(NC(=O)C(N)=S)c1`, the melting point worked out at 135 °C.

As for `COC(=O)c1cnc2c(c1)CCCCC2`, the melting point was in the range of 129 to 131 °C.

In turn, `O=C(Nc1ccccc1Oc1ccc(Cl)cc1)C1CCN(C(=O)c2ccccc2)CC1` yielded a melting point of 158 to 160 °C.

Take `CNC(=O)c1cccc(NC(=O)Cc2c(C)ccc3ccccc23)c1`: the melting point lay in the range of 230 to 231 °C.

Turning to `COc1cccc2c1S(=O)(=O)NC(C1CCCCC1)N2` (centres undefined), the melting point is 221 to 223 °C.

`Cc1cccc(C(CCC(=O)O)Oc2cc(OCc3cccnc3)ccc2C#N)c1C` (racemic) came in with a melting point of 187 to 189 °C.

Take `CC/C(=C(/c1ccc(O)cc1)c1ccc(OCCN(C)C)cc1)c1ccc(C(C)C)cc1`: the melting point was in the range of 95 to 96 °C.

For `CN(C)CCCCCCOc1ccc(C(=O)/C=C/c2ccccc2)cc1`, the melting point lay in the range of 43 to 46 °C.

`CC1C(c2ccccc2)OP(N)(=O)N1C` (centres undefined) gave a melting point of 170 to 172 °C.

Molecule `Cn1c(Cl)nc2cc(F)ccc21` registered a melting point of 138 to 141 °C.

In turn, `CC(=O)Nc1ccc(-n2ccnc2S(=O)Cc2ccccc2N(C)C)nc1` (centres undefined) had a melting point of 168 to 170 °C.

The molecule `NC(=O)N1C(=O)C(C(=O)c2cccs2)c2nc(Cl)ccc21` (centres undefined) registered a melting point of 222 to 224 °C.

Consider `C#CCSc1ncn(C(=O)N(CC)CC)n1`, for which the melting point is 67 to 69 °C.

The molecule `C#CCCc1cc2ccc(C(=O)OC)cc2o1` came in with a melting point of 68 to 69 °C.

On to `C=CCOc1ccc(CC(=O)NCC(=O)N[C@@H](Cc2c[nH]cn2)C(=O)OC)cc1Cl`, for which the melting point was 147 to 150 °C.

For the molecule `CCCn1nc2c(N)nc3c(c2c1CCCc1cc(-c2cccnc2)no1)CCCC3`, the melting point lay in the range of 168 to 170 °C.

`CCCOCN(C(=O)CCl)c1c(OC)cccc1OC` displayed a melting point of 83 to 85 °C.

`COc1ccc2c(c1)C(C(=O)N(Cc1ccc3c(c1)OCO3)c1ccc(C(C)C)cc1)CCC2` (centres undefined) yielded a melting point of 97 to 98 °C.

Molecule `CC(CC(=O)Nc1c(Cl)ccc2nc(N3CCC(NCCCO)C3)ccc12)c1ccccc1` (centres undefined) came in with a melting point of 155 to 158 °C.

In turn, `OC1CSC(Oc2ccc(-c3cncnc3)nc2)C(O)C1O` (centres undefined) registered a melting point of 188 °C.

For the molecule `Cc1cc(O)c(C(C)(C)C)cc1SC(Sc1cc(C(C)(C)C)c(O)cc1C)Sc1cc(C(C)(C)C)c(O)cc1C`, the melting point lay within 204 to 205 °C.

In the case of `Cn1cc(C2=C(c3c(S(C)=O)n(C)c4ccccc34)C(=O)NC2=O)c2ccccc21` (centres undefined), the melting point is 300 °C.

For `CCC#CCOc1cc2c(cc1/C=C/c1ccc(C(=O)OCC)cc1)C(C)(C)CCC2(C)C`, the melting point is 80 to 82 °C.

For `COc1cn(C)cc(-c2cccc(C(F)(F)F)c2)c1=O`, the melting point is 173 to 175 °C.

`O=C(Nc1c(-c2ccccc2F)nnn1CSc1ccccc1)C(Cl)C1CCC1` (centres undefined) returned a melting point of 103 to 104 °C.

`ClCc1coc(-c2ccc(Cl)o2)n1`: the melting point was in the range of 107 to 108 °C.

Turning to `Nc1ncccc1C(=O)NCC1CCN(CC2COc3ccc(F)cc3O2)CC1` (centres undefined), the melting point lay within 141 to 143 °C.

In turn, `CC(C)C(=O)Nc1cc([N+](=O)[O-])cc([N+](=O)[O-])c1` showed a melting point of 157 to 159 °C.

`COc1cc(C2c3cc4c(cc3C(NC3=CC(=O)N(Cc5ccc(F)cc5)C3=O)C3COC(=O)C23)OCO4)cc(OC)c1O` (centres undefined) returned a melting point of 214 to 216 °C.

Regarding `N#Cc1cscc1Nc1c(Cl)cccc1Cl`, the melting point was in the range of 105 to 108 °C.

`O=C(O)CCCOc1cccc2occc12` registered a melting point of 91 to 93 °C.

Consider `OC(c1ccc(F)cc1)(c1ccc(F)cc1)C1CCNC1` (centres undefined), for which the melting point was 152 to 153 °C.

The molecule `NC(=O)Oc1cccc2ccccc12` returned a melting point of 118 °C.

`CCOC(=O)c1c(C)nc(NN=C(C)C)c2nnn(CC)c12`: the melting point lay in the range of 68 to 72 °C.

`Cc1ccc2[nH]c3c(c2c1)C(C(=O)OCc1ccccc1)CCC3` (centres undefined) registered a melting point of 115 to 117 °C.

For the molecule `CC1=C(C(=O)OC(C)C)C(c2cccc(Cl)c2Cl)N(C(=O)OC(C)C)C(=O)N1` (centres undefined), the melting point lay within 158 to 160 °C.

Turning to `CCOC(=O)c1[nH]c2cc(Cl)cc(Cl)c2c1NCCCC(=O)c1ccccc1`, the melting point fell in the range of 203 to 205 °C.

On to `O=C(O)c1ccccc1N1CCN(CC(O)COc2cccc3ccccc23)CC1` (centres undefined), for which the melting point lay within 215 to 218 °C.

`CCOCCc1ccc(OCC=NO)c(C)c1C` yielded a melting point of 102 to 105 °C.

As to `COc1ccc(C=O)c2cc(C)oc12`, the melting point lay in the range of 167 to 170 °C.

Turning to `Cc1ncc2c(c1OCC(=O)O)COC2c1ccc(Cl)cc1` (centres undefined), the melting point was 226 to 230 °C.

For the molecule `CCCNC(=O)C(C)=Cc1ccc2ccn(Cc3ccc(C(=O)NS(=O)(=O)c4ccccc4C)cc3OC)c2c1`, the melting point was in the range of 224 to 227 °C.

Consider `Fc1ccc(-c2nc3ccccc3nc2-c2ccc(F)cc2)cc1`, for which the melting point is 132 °C.

In turn, `Nc1ncccc1C(=O)NCC1CCN(C[C@H]2COc3cccc(Cl)c3O2)CC1` returned a melting point of 62 to 70 °C.

Molecule `CCCCOc1cc(CNCCCN2CCCCC2)cc(S(N)(=O)=O)c1Cc1ccccc1` had a melting point of 98 to 101 °C.

On to `O=C(CS(=O)(=O)C(c1ccc(Cl)cc1)c1ccc(Cl)cc1)c1cccs1`, for which the melting point is 150 to 151 °C.

The molecule `Cc1nn(C)c(NN)c1[N+](=O)[O-]` yielded a melting point of 177 to 179 °C.

Molecule `Cc1cc(Br)ccc1C(CO)NC(=O)c1c(Cl)cncc1Cl` (centres undefined) yielded a melting point of 192 to 194 °C.

As to `Cc1conc1-c1nnc2c3ccccc3c(OCc3nnccc3C(C)(C)C)nn12`, the melting point was in the range of 230 to 232 °C.

As for `CCOc1c(SC(F)(F)F)c(C(N)=O)nn1-c1c(Cl)cc(C(F)(F)F)cc1Cl`, the melting point is 161 °C.

Turning to `Cc1cccc2c1NC(=O)C(CCCN1CCN(c3ccccc3F)CC1)S2` (centres undefined), the melting point fell in the range of 121 to 123 °C.

`COC(=O)c1ccc(NC(=O)c2cc(C(C)C)c(C(C)C)s2)cc1`: the melting point is 180 to 182 °C.

On to `Cc1cc(N2NCCNC2=O)cc(Cl)c1C(O)c1ccc(Cl)cc1` (centres undefined), for which the melting point was 146 to 147 °C.

Regarding `CCC(O)(c1ccsc1)c1oc(C)nc1C` (centres undefined), the melting point is 81 to 83 °C.

Regarding `OCC(O)Cc1nccn1CCCCc1ccc(OCc2coc(/C=C/c3ccc(F)cc3F)n2)cc1` (centres undefined), the melting point was in the range of 126 to 128 °C.

Molecule `Cc1sc(C(=O)OCc2ccccc2)cc1NC(=O)NCc1ccccc1` came in with a melting point of 208 to 209 °C.

Take `C[C@@H](c1ccc(-c2ccc(C(=O)NC3CC3)cn2)cc1)N1CC[C@](CC(C)(C)O)(c2ccccc2)OC1=O`: the melting point lay in the range of 191 to 194 °C.

`CN(Cc1cc(C(F)(F)F)cc(C(F)(F)F)c1)C(=O)c1c(-c2ccc(F)cc2)c2cnccc2c(=O)n1C`: the melting point lay within 136 to 138 °C.

As for `COc1cc(NC(C)=O)c(Cl)cc1C(=O)NN1CCN2CCCCC2C1` (centres undefined), the melting point is 200 to 201 °C.

In turn, `O=C(Nc1nnc(Cc2ccc(Cl)cc2)s1)c1ccc2cccnc2c1O` registered a melting point of 276 to 278 °C.

Take `COc1nc(C)c(C)nc1NC(=O)N1CCN(c2c(C)c(C)cc(C)c2C)CC1`: the melting point lay in the range of 202 to 204 °C.

Molecule `c1ccc(N2CCN(c3nsc4nc5ccccc5n34)CC2)nc1` returned a melting point of 176 to 178 °C.

Molecule `CN(Cc1cccc2c1CN(C1CCC(=O)NC1=O)C2=O)C(=O)Nc1ccc(Cl)cc1` (centres undefined) yielded a melting point of 255 to 257 °C.

On to `CCN(CC)C(=O)c1cc2ccccc2c(-c2cccc(Cl)c2)n1`, for which the melting point came out at 116 °C.

For the molecule `O=c1cc(-c2cccs2)oc2cccc(OCCO)c12`, the melting point was in the range of 160 to 162 °C.

`Cc1cccc2c(=O)n(C3CCC(=O)NC3=O)c(C)nc12` (centres undefined): the melting point is 296 to 298 °C.

Turning to `CC(=O)OCC(CO)CCn1cnc2c(=O)[nH]c(N)nc21` (centres undefined), the melting point lay within 194 to 200 °C.

In turn, `CN(CCCNC1=CC(=O)c2scnc2C1=O)CCCNC1=CC(=O)c2scnc2C1=O` yielded a melting point of 223 to 224 °C.

In the case of `CCOCc1nc2c(N)nc3c(c2n1CCCCS(=O)(=O)N(C)C)CCCC3`, the melting point was in the range of 165 to 167 °C.

The molecule `C[C@H]1C[C@@](O)(c2cnc(Sc3ccc4c(c3)CC(=O)N4C)s2)CCO1` showed a melting point of 140 °C.

The molecule `COc1cccc2c1CC(CC(=O)O)C(=O)C2` (centres undefined) displayed a melting point of 129 to 131 °C.

For the molecule `CC(C)(CO)Nc1cc(Cl)ccc1[N+](=O)[O-]`, the melting point fell in the range of 102 to 104 °C.

`CC1COCc2nc3c(N)nc4cc(C=CC(=O)N(C)C)ccc4c3n21` (centres undefined) showed a melting point of more than 250 °C.

The molecule `COc1ccccc1N1CCN(CCC(N)=O)CC1` had a melting point of 145 to 146 °C.

Molecule `Cc1nc(-c2ccncc2)sc1-c1cccnc1` displayed a melting point of 113 to 114 °C.

`O=C1CN(Cc2ccc(CCn3cnc4cc(-c5ccc(Cl)cc5)sc4c3=O)cc2)CCN1` gave a melting point of 232 to 234 °C.

In turn, `O=c1[nH]c2ccc(I)cc2cc1[N+](=O)[O-]` registered a melting point of 279 to 282 °C.

Regarding `O=C(c1ccccc1)c1ccc(Oc2ccc(S(=O)(=O)Cc3ccccc3)cn2)cc1`, the melting point fell in the range of 146 to 147 °C.

Consider `N#CC(=Cc1ccc2[nH]ccc2c1)S(=O)(=O)c1ccc(OC(F)(F)F)cc1`, for which the melting point fell in the range of 171 to 175 °C.

For `COc1ccc2c(n1)C1(CO2)C(=O)N(Cc2ccc3c(c2)OCCO3)c2ccccc21` (centres undefined), the melting point lay within 144 to 146 °C.

As to `CSc1nc2c(cnn2CC(O)c2ccccc2)c(=O)[nH]1` (centres undefined), the melting point lay in the range of 208 to 209 °C.

The molecule `CCn1c(N)c(C(=O)NC)c(=O)c2ccc(C#CC(C)(C)OCC(N)=O)nc21` displayed a melting point of 204 °C.

As usually defined, the melting point is the temperature of the solid-liquid transition.
